Test results taken from patent US20040121946A9, “Inducing cellular immune responses to her2/neu using peptide and nucleic acid compositions” (priority 2002, published 2004).
Where no end group is shown, it is not given here.

Legend:
DRB1*1302 (DR6w19) = DRB1*1302 (DR6w19) (Homo sapiens, UniProt P01903+P01911, A100E/A169T/K41T/L162R/M171V/P40S/Q125H/Q178H/Q39Y/Q99D/R42S/S66N/T262R/V115G/W38E/Y61H); test: HLA class II peptide binding assay, purified HLA; conditions: Table XXIX; read-out: DR6w19 nM
[1] = tested on: HLA-DR molecules (DR1, DR4w4, DR7, DRB5*0101, DRB1*1501, DRB1*1101, DRB1*0802, DRB1*1302); test: DR supertype cross-reactive binding; set-up: species or system human; conditions: for DR147 Cross-binding: Table XXVIII
DRB1*0701 (DR7) = DRB1*0701 (DR7) (Homo sapiens, UniProt P01903+P01911, A100R/A102G/A103Q/D57E/D86V/E43K/F76Y/K127E/L162R/M171V/P40G/Q125H/Q99D/R33Q/R42Y/R54Q/S133A/S66F/T210M/V115G/Y107V/Y59L/Y89S); test: HLA class II peptide binding assay, purified HLA; conditions: unit not given
DRB1*0401 (DR4w4) = DRB1*0401 (DR4w4) (Homo sapiens, UniProt P01903+P01911, A100K/A169T/F76Y/I96L/K127E/L162R/M171V/N62H/P40V/Q125Y/R42H/S133A/S149N/S66Y/V115G/V209L/W38E); test: HLA class II peptide binding assay, purified HLA; conditions: unit not given
DRB1*0101 (DR1) = DRB1*0101 (DR1) (Homo sapiens, UniProt P01903+P01911, A100R/D57E/F55L/F60I/F76Y/I96L/L162R/M171V/P40L/Q125E/R42F/V115G/Y59C); test: HLA class II peptide binding assay, purified HLA; conditions: unit not given
[2] = number of DR1, DR4w4, DR7 bound
[3] = Table XIX, DR supermotif peptides
[4] = Table XXa, DR 3a motif peptides

Sequence of DRB1*1302 (DR6w19) (P01903 26-254 limits assumed, other chains not shown): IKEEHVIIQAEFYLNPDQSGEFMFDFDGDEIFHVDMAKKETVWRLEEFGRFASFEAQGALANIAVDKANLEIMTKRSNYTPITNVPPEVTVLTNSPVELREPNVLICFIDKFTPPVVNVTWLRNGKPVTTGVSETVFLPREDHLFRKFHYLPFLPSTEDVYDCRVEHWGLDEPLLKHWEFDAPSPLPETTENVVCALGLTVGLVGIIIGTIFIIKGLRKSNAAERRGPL

CC(C)C[C@H](NC(=O)[C@H](CCC(=O)O)NC(=O)[C@@H](NC(=O)[C@@H](N)CCC(=O)O)[C@@H](C)O)C(=O)N[C@@H](CCCNC(=N)N)C(=O)N[C@@H](CCCCN)C(=O)N[C@H](C(=O)N[C@@H](CCCCN)C(=O)N[C@H](C(=O)N[C@@H](CC(C)C)C(=O)NCC(=O)N[C@@H](CO)C(=O)NCC(=O)N[C@@H](C)C(=O)N[C@@H](Cc1ccccc1)C(=O)O)C(C)C)C(C)C
IC50 (DRB1*1302 (DR6w19)): 2500 nM
DR147 Binding ([1]; number of DR1, DR4w4, DR7 bound, Table XXIX): 2
DR147 Cross-binding [1, 2]: 2
Broad Binding (5/8) ([1]; number of the 8 DR alleles bound): 2

CSCC[C@H](NC(=O)[C@H](CC(=O)O)NC(=O)[C@@H](NC(=O)CN)[C@@H](C)O)C(=O)N[C@@H](CCCCN)C(=O)N[C@@H](CC(C)C)C(=O)N[C@@H](CCCNC(=N)N)C(=O)N[C@@H](CC(C)C)C(=O)N1CCC[C@H]1C(=O)N[C@@H](C)C(=O)N[C@@H](CO)C(=O)N1CCC[C@H]1C(=O)N[C@@H](CCC(=O)O)C(=O)N[C@H](C(=O)N[C@@H](Cc1c[nH]cn1)C(=O)O)[C@@H](C)O
DR7 binding data (DRB1*0701 (DR7); [3]): −0.0013
DR147 Cross-binding [1, 2]: 0
DR4w4 binding data (DRB1*0401 (DR4w4); [3]): −0.0025
DR1 binding data (DRB1*0101 (DR1); [3]): 0.0010

CC[C@H](C)[C@H](NC(=O)[C@H](CCC(=O)O)NC(=O)[C@@H](N)CCCCN)C(=O)N[C@@H](CC(C)C)C(=O)N[C@@H](CC(=O)O)C(=O)N[C@@H](CCC(=O)O)C(=O)N[C@@H](C)C(=O)N[C@@H](Cc1ccc(O)cc1)C(=O)N[C@H](C(=O)N[C@@H](CCSC)C(=O)N[C@@H](C)C(=O)NCC(=O)N[C@H](C(=O)NCC(=O)N[C@@H](CO)C(=O)O)C(C)C)C(C)C
DR7 binding data (DRB1*0701 (DR7); [3]): −0.0011
DR147 Cross-binding [1, 2]: 0
DR4w4 binding data (DRB1*0401 (DR4w4); [3]): 0.0073
DR1 binding data (DRB1*0101 (DR1); [3]): 0.0036

DMKLRLPASPETHLD
DR7 binding data (DRB1*0701 (DR7); [3]): −0.0013
DR147 Cross-binding [1, 2]: 0
DR4w4 binding data (DRB1*0401 (DR4w4); [3]): −0.0025
DR1 binding data (DRB1*0101 (DR1); [3]): 0.0010

ETELVEPLTPSGAMP
DR7 binding data (DRB1*0701 (DR7); [3]): −0.0013
DR147 Cross-binding [1, 2]: 1
DR4w4 binding data (DRB1*0401 (DR4w4); [3]): −0.0025
DR1 binding data (DRB1*0101 (DR1); [3]): 0.0060

IKVLRENTSPKANKE
DR7 binding data (DRB1*0701 (DR7); [3]): −0.0011
DR147 Cross-binding [1, 2]: 0
DR4w4 binding data (DRB1*0401 (DR4w4); [3]): −0.0032
DR1 binding data (DRB1*0101 (DR1); [3]): −0.0005

ITDFGLARLLDIDET
DR7 binding data (DRB1*0701 (DR7); [3]): −0.0011
DR147 Cross-binding [1, 2]: 0
DR4w4 binding data (DRB1*0401 (DR4w4); [3]): −0.0032
DR1 binding data (DRB1*0101 (DR1); [3]): 0.0048

LLVVVLGVVFGILIK
DR7 binding data (DRB1*0701 (DR7); [3]): 0.0019
DR147 Cross-binding [1, 2]: 0
DR4w4 binding data (DRB1*0401 (DR4w4); [3]): −0.0025
DR1 binding data (DRB1*0101 (DR1); [3]): −0.0008

PSTFKGTPTAENPEY
DR7 binding data (DRB1*0701 (DR7); [3]): −0.0011
DR147 Cross-binding [1, 2]: 0
DR4w4 binding data (DRB1*0401 (DR4w4); [3]): −0.0032
DR1 binding data (DRB1*0101 (DR1); [3]): −0.0005

QGFFCPDPAPGAGGM
DR7 binding data (DRB1*0701 (DR7); [3]): −0.0011
DR7 binding data (DRB1*0701 (DR7); [4]): −0.0011
DR147 Cross-binding [1, 2]: 0
DR4w4 binding data (DRB1*0401 (DR4w4); [3]): 0.0230
DR4w4 binding data (DRB1*0401 (DR4w4); [4]): 0.0230
DR1 binding data (DRB1*0101 (DR1); [3]): −0.0005
DR1 binding data (DRB1*0101 (DR1); [4]): −0.0005

QPDVRPQPPSPREGP
DR7 binding data (DRB1*0701 (DR7); [3]): −0.0011
DR147 Cross-binding [1, 2]: 0
DR4w4 binding data (DRB1*0401 (DR4w4); [3]): −0.0032
DR1 binding data (DRB1*0101 (DR1); [3]): 0.0007

TDGYVAPLTCSPQPE
DR7 binding data (DRB1*0701 (DR7); [3]): −0.0011
DR147 Cross-binding [1, 2]: 0
DR4w4 binding data (DRB1*0401 (DR4w4); [3]): −0.0032
DR1 binding data (DRB1*0101 (DR1); [3]): −0.0005

VCPLHNQEVTAEDGT
DR7 binding data (DRB1*0701 (DR7); [3]): −0.0013
DR147 Cross-binding [1, 2]: 0
DR4w4 binding data (DRB1*0401 (DR4w4); [3]): −0.0025
DR1 binding data (DRB1*0101 (DR1); [3]): −0.0004

VEPLTPSGAMPNQAQ
DR7 binding data (DRB1*0701 (DR7); [3]): −0.0011
DR147 Cross-binding [1, 2]: 0
DR4w4 binding data (DRB1*0401 (DR4w4); [3]): −0.0025
DR1 binding data (DRB1*0101 (DR1); [3]): −0.0008

VVGILLVVVLGVVFG
DR7 binding data (DRB1*0701 (DR7); [3]): −0.0013
DR147 Cross-binding [1, 2]: 0
DR4w4 binding data (DRB1*0401 (DR4w4); [3]): −0.0025
DR1 binding data (DRB1*0101 (DR1); [3]): −0.0004
